Results published in US20100261679A1 (priority 2007, published 2010).

Columns and labels:
[1] = molecular target: T1, cytoplasmic domain of the human CSF-1R (Homo sapiens, UniProt P07333); assay: In vitro kinase assay for CSF-1R (AlphaScreen); assay type: biochemical; conditions: tested at about 1 μM
T1 construct: Recombinant protein corresponding to the cytoplasmic domain of the human CSF-1R; purchased Invitrogen Corporation, Carlsbad, Calif; U.S.A. PV3249
T1 sequence (P07333 539-972 limits assumed): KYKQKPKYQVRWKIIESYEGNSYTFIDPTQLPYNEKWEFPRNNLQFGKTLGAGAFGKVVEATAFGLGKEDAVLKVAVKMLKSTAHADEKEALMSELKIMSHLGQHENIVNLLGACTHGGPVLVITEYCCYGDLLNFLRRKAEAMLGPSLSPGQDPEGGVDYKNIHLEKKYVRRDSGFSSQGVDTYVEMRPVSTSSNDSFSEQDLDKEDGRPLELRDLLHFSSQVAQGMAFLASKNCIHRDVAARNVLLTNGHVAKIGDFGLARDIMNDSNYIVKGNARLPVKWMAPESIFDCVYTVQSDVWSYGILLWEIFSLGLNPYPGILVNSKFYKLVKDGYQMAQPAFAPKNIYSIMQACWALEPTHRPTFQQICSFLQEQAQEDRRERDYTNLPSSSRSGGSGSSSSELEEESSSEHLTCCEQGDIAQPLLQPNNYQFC
Method: The kinase activity of various protein tyrosine kinases can be measured by providing ATP and a suitable peptide or protein tyrosine-containing substrate, and assaying the transfer of phosphate moiety to the tyrosine residue. Recombinant protein corresponding to the cytoplasmic domain of the human CSF-1R was purchased from Invitrogen Corporation, Carlsbad, Calif. U.S.A. (#PV3249). For each assay, test compounds were serially diluted, starting at 25 μM with 3 fold dilutions, in DMSO in 384 well plates then mixed with an appropriate kinase reaction buffer consisting of 50 mM Hepes, 5 mM MgCl2, 10 mM MnCl2, 0.1% BSA, pH 7.5, 1.0 mM dithiothreitol, 0.01% Tween 80 plus […]. Kinase protein and an appropriate biotinylated peptide substrate at 50 nM were added to give a final volume of 20 μL, reactions were incubated for 2 hours at room temperature and stopped by the addition of 10 μL of 45 mM EDTA, 50 mM Hepes pH 7.5. Added to the stopped reaction mix was 30 μL of PT66 Alphascreen beads (Perkin Elmer, Boston, Mass., U.S.A.). The reaction was incubated overnight and read on the Envision (Perkin Elmer). Phosphorylated peptide product was measured with the AlphaScreen system (Perkin Elmer) using acceptor beads coated with anti-phosphotyrosine antibody PT66 and donor beads coated with streptavidin that emit a fluorescent signal at the 520-620 nm emission wave length if in close proximity. The concentration of each compound for 50% inhibition (IC50) was calculated by non-linear regression using XL Fit data analysis software.
CSF-1R kinase was assayed in 50 mM Hepes pH 7.0, 5 mM MgCl2, 10 mM MnCl2, 1 mM DTT, 1 mg/mL BSA, 1.0 μM ATP, and 0.05 μM biotin-GGGGRPRAATF-NH2 (SEQ ID NO:2) peptide substrate. CSF-1R kinase was added at final concentration of 4 nM.

[2] = molecular target: T2, PDGFRb (Homo sapiens, UniProt P09619); assay: Inhibition of PDGFRb kinase in an in vitro biochemical assay (alphascreen); conditions: tested at about 1 μM; read-out: PDGFR % inhibition at 1 μM
T2 construct: The kinase domain of PDGFRβ was assayed in 50 mM Hepes; purchased Invitrogen P3082
Method: (§1) The IC50 values for the inhibition of RTKs were determined in the alphascreen format measuring the inhibition by compound of phosphate transfer to a substrate by the respective enzyme. Briefly, the respective RTK domain purchased as human recombinant protein (cKIT Upstate #14-559, PDGFRb Invitrogen #P3082) were incubated with serial dilutions of compound in the presence of substrate and ATP concentrations within 3 times the Km of the enzyme.
(§2) The kinase domain of cKIT was assayed in 50 mM Hepes, pH=7.5, 5 mM MgCl2, 10 mM MnCl2, 1 mM DTT, 0.1% BSA with 0.06 uM biotinylated peptide substrate (GGLFDDPSYVNVQNL-NH2) and 15 μM ATP (ATP KM apparent =15 μM). The kinase domain of PDGFRβ was assayed in 50 mM Hepes, pH=7.5, 20 mM MgCl2, 1 mM DTT, 0.1% BSA with 0.1 μM biotinylated peptide substrate (GGLFDDPSYVNVQNL-NH2) and 10 μM ATP (ATP KM apparent=25 μM). Reactions were incubated at room temperature for 3 to 4 hr and stopped with buffer (20 mM EDTA, 0.01% Tween-20 for both PDGFRβ and cKIT). Alphascreen PY20 beads were added to the stopped cKIT reactions and PY20 Ab/Protein A Alphascreen beads were added to the PDGFRβ stopped reactions. Both reactions were incubated overnight and read on the Alphascreen reader. The concentration of compound for 50% inhibition (IC50) was calculated employing non-linear regression using XL-Fit data analysis software. As a control compound, staurosporine is run in every assay and a Z′>0.5 is required to validate results.

[3] = molecular target: T3, cKIT (Homo sapiens, UniProt P10721); assay: Inhibition of cKIT kinase in an in vitro biochemical assay (alphascreen); conditions: tested at about 1 μM
T3 construct: The kinase domain of cKIT was assayed in 50 mM Hepes; purchased Upstate 14-559
Method: as §1, §2

T3 sequence (P10721 589-937 limits assumed): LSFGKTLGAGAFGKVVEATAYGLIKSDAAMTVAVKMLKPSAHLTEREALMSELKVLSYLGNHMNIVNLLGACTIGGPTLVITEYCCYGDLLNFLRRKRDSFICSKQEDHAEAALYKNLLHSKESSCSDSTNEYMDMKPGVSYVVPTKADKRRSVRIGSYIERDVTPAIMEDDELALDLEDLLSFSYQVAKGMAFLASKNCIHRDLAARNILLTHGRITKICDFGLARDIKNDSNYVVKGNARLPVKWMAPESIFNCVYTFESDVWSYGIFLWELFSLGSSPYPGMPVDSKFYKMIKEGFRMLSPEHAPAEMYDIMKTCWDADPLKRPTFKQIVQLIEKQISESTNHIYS
T2 sequence (P09619 600-962 limits assumed): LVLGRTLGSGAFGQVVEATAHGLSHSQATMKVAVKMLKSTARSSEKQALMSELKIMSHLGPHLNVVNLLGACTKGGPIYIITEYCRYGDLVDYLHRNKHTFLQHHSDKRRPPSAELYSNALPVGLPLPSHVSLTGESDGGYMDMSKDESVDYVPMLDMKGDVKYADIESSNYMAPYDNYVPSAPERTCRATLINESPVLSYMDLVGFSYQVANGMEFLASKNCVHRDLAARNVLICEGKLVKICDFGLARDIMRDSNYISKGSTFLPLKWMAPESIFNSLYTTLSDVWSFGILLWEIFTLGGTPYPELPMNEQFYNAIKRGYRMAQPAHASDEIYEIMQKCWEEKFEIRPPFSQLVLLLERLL

Row | SMILES | inhibition at 1 µM [1] [%] | inhibition at 1 µM [2] [%] | inhibition at 1 µM [3] [%]
1 | CNC(=O)c1cc(Oc2ccc3nc(Nc4cccc5c4OC(F)(F)O5)ncc3c2)ccn1 [Example 68, 4-(2-(2,2-difluorobenzo[d][1,3]dioxol-4-ylamino)quinazolin-6-yloxy)-N-methylpicolinamide] | 98 | 2 | 10
2 | CNC(=O)c1cc(Oc2ccc3nc(NC(=O)C4CCCCC4)ncc3c2)ccn1 [Example 59, 4-(2-(cyclohexanecarboxamido)quinazolin-6-yloxy)-N-methylpicolinamide] | 99 | 13 | 13
3 | c1ccc(N2CCOCC2)c(Nc2ncc3cc(Oc4ccncc4)ccc3n2)c1 [Cmpd 28, N-(2-morpholinophenyl)-6-(pyridin-4-yloxy)quinazolin-2-amine] | 52 | < 1 | 8
4 | CNC(=O)c1cc(Oc2ccc3nc(N[C@H]4CCCC[C@@H]4O)ncc3c2)ccn1 [Example 12] | 100 | 39 | 39
5 | CNC(=O)c1cc(Oc2ccc3sc(N[C@@H]4CCCC[C@H]4O)nc3c2)ccn1 [Example 81, 4-(2-((1R,2R)-2-hydroxycyclohexylamino)benzo[d]thiazol-5-yloxy)-N-methylpicolinamide] | 99 | 71 | 39
6 | CNC(=O)c1cc(Oc2ccc3nc(N[C@H](C)C4CCCCC4)[nH]c3c2)ccn1 [Example 83, (R)-4-(2-(1-cyclohexylethylamino)-1H-benzo[d]imidazol-6-yloxy)-N-methylpicolinamide] | 100 | 100 | 100
7 | CCCNc1ncc2cc(Oc3ccnc(C(=O)NC)c3)ccc2n1 [Example 52, N-methyl-4-(2-(propylamino)quinazolin-6-yloxy)picolinamide] | 52 | 9 | 7
8 | CNC(=O)c1cc(Sc2ccc3nc(NCC4CCCCC4)sc3c2)ccn1 [Example 78, 4-(2-(cyclohexylmethylamino)benzo [d]thiazol-6-ylthio)-N-methylpicolinamide] | 100 | 34 | 13
9 | CNC(=O)c1cc(Oc2ccc3nc(NC4CCCCC4)ncc3c2)ccn1 [Example 74, 4-(2-(cyclohexylamino)quinazolin-6-yloxy)-N-methylpicolinamide] | 100 | < 1 | 18

Now from value to compound:

Row | inhibition at 1 µM [1] [%] | inhibition at 1 µM [2] [%] | inhibition at 1 µM [3] [%] | SMILES
10 | 99 | 7 | 16 | CNC(=O)c1cc(Oc2ccc3nc(N[C@@H](C)c4ccccc4)ncc3c2)ccn1 [Example 64, (S)-N-methyl-4-(2-(1-phenylethylamino)quinazolin-6-yloxy)picolinamide]
11 | 96 | < 1 | 13 | CNC(=O)c1cc(Oc2ccc3nc(Nc4ccccc4CN4CCOCC4)ncc3c2)ccn1 [Example 67, N-methyl-4-(2-(2-(morpholinomethyl)phenylamino)quinazolin-6-yloxy)picolinamide]
12 | 100 | 66 | 99 | CNC(=O)c1cc(Oc2ccc3nc(NCc4cccc5c4OCCO5)ncc3c2)ccn1 [Example 42, 4-(2-((2,3-dihydrobenzo[b][1,4]dioxin-5-yl)methylamino)quinazolin-6-yloxy)-N-methylpicolinamide]
13 | 99 | 5 | 17 | CNC(=O)c1cc(Oc2ccc3nc(Nc4ccccc4OCCOC)ncc3c2)ccn1 [Example 69, 4-(2-(2-(2-methoxyethoxy)phenylamino)quinazolin-6-yloxy)-N-methylpicolinamide]
